Measured values: patent US7053055B2, “Compounds of unstable DP IV-inhibitors” (priority 1998, dated 2006)

Tests used:
DP IV [1] = biological target: T1, DP IV (Homo sapiens, UniProt P27487); experiment: DP IV-catalysed hydrolysis of H-Gly-Pro-pNA in the presence of inhibitor (progress curves); format: biochemical
Method: When the DP IV target enzyme is incubated with unstable inhibitors in the presence of a substrate, inhibition of the enzyme is observed initially; the inhibition subsides again as the experimental time progresses as a result of the intramolecular cyclisation of the inhibitor which takes place in parallel, since the concentration of the inhibitor in the reaction solution decreases as a result of the spontaneously occurring chemical reaction. Because of the time-dependent drop in the concentration of the inhibitor, the rate of the enzyme-catalysed hydrolysis of the substrate increases again as time progresses.
(§1) The active DP IV-inhibitor H-Val-Pro-CH2—(N^+C5H5) is released only as a result of the addition of the DP IV enzyme (used here by way of example also to release the DP IV-inhibitor) with removal of the N-terminal dipeptide H-Gly-Pro-OH. Accordingly, in the mass spectrum (FIG. 7) markedly more than 50% of the incubated compound according to the invention can be detected even after an incubation period of 60 minutes.

DP IV [2] = biological target: T1, DP IV; experiment: Stability and DP IV-catalysed cleavage of the masked compound, MALDI-TOF mass spectrum of incubation batch; format: biochemical
Method: as §1

[3] = Intramolecular cyclisation in aqueous buffer solution monitored by MALDI-TOF mass spectrometry; format: physicochemical; settings: aqueous buffer solution pH=7.6, MALDI-TOF MS
Source text: The products of that reaction are the respective pyrazine derivatives (FIG. 1).

[4] = Intramolecular cyclisation (stability) in 0.1 M HEPES buffer quantified by UV spectrometry; format: physicochemical; settings: pH=7.6, 25° C.; for k (rate constant of intramolecular cyclisation): UV spectrometry
Method: The cyclisation reaction was monitored over a period of 40 minutes. The formation of the double bond system of the pyrazine, which takes place during the intramolecular reaction, enables quantitative analysis of the cyclisation process by means of UV spectrometry (FIG. 4). The rate constants determined there from for the intramolecular cyclisation of unstable DP IV-inhibitors in 0.1 M HEPES buffer, pH=7.6, 25° C., are shown in Table 1.

T1 sequence (P27487 whole entry): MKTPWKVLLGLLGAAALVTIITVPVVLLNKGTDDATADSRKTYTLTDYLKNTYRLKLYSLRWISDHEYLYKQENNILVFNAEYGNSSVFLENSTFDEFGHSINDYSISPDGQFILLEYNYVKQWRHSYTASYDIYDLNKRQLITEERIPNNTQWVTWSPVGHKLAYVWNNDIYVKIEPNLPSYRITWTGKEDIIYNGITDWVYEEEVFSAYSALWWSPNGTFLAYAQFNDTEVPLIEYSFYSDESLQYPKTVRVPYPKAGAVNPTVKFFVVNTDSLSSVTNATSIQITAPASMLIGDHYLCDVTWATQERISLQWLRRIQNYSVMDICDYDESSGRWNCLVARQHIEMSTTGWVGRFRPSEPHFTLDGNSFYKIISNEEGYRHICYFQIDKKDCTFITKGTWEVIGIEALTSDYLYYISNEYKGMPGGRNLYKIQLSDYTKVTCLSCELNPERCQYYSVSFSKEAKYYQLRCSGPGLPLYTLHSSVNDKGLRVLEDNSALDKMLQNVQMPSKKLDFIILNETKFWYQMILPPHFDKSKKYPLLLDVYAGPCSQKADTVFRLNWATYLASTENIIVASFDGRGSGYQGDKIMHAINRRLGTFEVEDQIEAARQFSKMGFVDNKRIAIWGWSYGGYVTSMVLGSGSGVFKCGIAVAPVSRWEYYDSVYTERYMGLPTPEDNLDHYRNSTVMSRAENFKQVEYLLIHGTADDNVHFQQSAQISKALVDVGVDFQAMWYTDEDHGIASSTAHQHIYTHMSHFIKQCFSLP

Period within which breakdown to the cyclic pyrazine derivative is completed quantitatively [3]	half-life [4]	Structure (SMILES)	Duration of DP IV-inhibitory activity compared with the unstable DP IV-inhibitors (DP IV [1]; 2.6×10^−5 mol/litre compound, FIG. 8)	Inhibition of the target enzyme DP IV (DP IV [1]; substrate H-Gly-Pro-pNA, 0.06 μg/ml DP IV, 0.1 M HEPES pH=7.6, 30° C.)	Incubated compound still detectable in mass spectrum (DP IV [2]; incubation with 0.06 μg/ml DP IV, 0.1 M HEPES pH=7.6, 30° C., after 60 minutes)	Stability in buffered aqueous solution in the absence of an enzyme (DP IV [2]; over a period of 24 hours)	k (rate constant of intramolecular cyclisation) [4]
–	–	CC(C)C(NC(=O)C1CCCN1C(=O)CN)C(=O)N1CCCC1C(=O)C[n+]1ccccc1.[Cl-] (stereo not drawn) [H-Gly-Pro-Val-Pro-CH2—(N+C5H5), H-Gly-Pro-Val-Pro-CH2—(N^+C5H5)/C1^−]	markedly prolonged activity	effective inhibition of the target enzyme	more than 50%	stable	–
≤ 30 min	9.6 min	NC(Cc1ccccc1)C(=O)N1CCCC1C(=O)C[n+]1ccccc1.[Cl-] (stereo not drawn) [H-Phe-Pro-CH2-(N^+C5H5), H-Phe-Pro-CH2—(N^+C5H5)/C1^−]	–	–	–	–	0.0012 min⁻¹
≤ 60 min	13.3 min	CC(C)C(N)C(=O)N1CCCC1C(=O)C[n+]1ccccc1.[Cl-] (stereo not drawn) [H-Val-Pro-CH2-(N^+C5H5), H-Val-Pro-CH2—(N^+C5H5)/C1]	–	–	–	–	0.00087 min⁻¹
